Experiment [1] concerns the target T1, IRAK4 (Homo sapiens, UniProt Q9NWZ3).
T1 sequence (Q9NWZ3 1-460): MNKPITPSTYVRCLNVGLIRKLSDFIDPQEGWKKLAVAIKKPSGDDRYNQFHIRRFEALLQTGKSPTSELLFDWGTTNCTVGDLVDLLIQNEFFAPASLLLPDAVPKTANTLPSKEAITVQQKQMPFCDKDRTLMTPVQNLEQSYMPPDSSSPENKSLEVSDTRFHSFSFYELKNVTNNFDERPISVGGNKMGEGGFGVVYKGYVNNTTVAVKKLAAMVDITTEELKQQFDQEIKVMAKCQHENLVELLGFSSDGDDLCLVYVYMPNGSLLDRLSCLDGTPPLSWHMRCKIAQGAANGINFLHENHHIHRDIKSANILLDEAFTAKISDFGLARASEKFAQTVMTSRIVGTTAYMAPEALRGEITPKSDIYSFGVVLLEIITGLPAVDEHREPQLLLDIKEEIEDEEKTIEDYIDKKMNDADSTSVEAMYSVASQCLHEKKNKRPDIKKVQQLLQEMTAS
Kind of experiment: IRAK4 PhosphoSens Biochemical Assay (BIOCHEM). The conditions noted are these: 200 μM ATP, 10 μM peptide substrate AQT0326, 1 nM IRAK4, room temperature, 240 minutes.

Experiment [2] addresses T1, IRAK4. The experiment is described as follows: ALE THP1 HTRF (IRAK4 in THP1 cell lysates, Homogeneous Time Resolved Fluorescence). The format is cell-based. Further details: THP1 Homogeneous Time Resolved Fluorescence (ALE THP1 HTRF) Procedure; endogenous in cells; host or cells: THP1. The conditions noted are these: THP1 cells. As to the method:
Cell culture media was prepared in a tissue culture hood in a sterile environment by adding 10% FBS and 1% Penicillin Streptomycin to 500 mL no phenol red RPMI 1640 media. The media was filtered through a Nalgene Bottle Top Filter and stored at 4° C.
For Homogenous Time Resolved Fluorescence (HTRF) assays, a Cisbio HTRF kit was used, which included: Lysis Buffer #1 4×, Blocking Reagent #3 100×, 20× Antibody 1 (Anti-IRAK4 d2), 20× Antibody 2 (Anti-IRAK4 k), and Detection Buffer.
4× Lysis Buffer was stored at 4° C. For use as 1× Lysis buffer, the 4× solution was diluted with de-ionized water (distilled water, Gibco Cat. #15230279) and 100× Blocking Reagent in a 1:3:0.04 volume ratio.
20× Antibody Solution aliquots were stored in −80° C. and the Detection Buffer was stored in 4° C. For use as a 1× Antibody Solution, the 20× Antibody Solution aliquot was diluted with Detection Buffer in a 1:19 volume ratio.
Cells were lysed at room temperature for 45 min with shaking. A BCA protein assay was performed and normalization was conducted to the desired total protein concentration with 1× lysis buffer. Next, 1× Antibody Solutions were prepared by adding 380 μL Detection Buffer to 20 μL 20× Antibody Solution aliquots and mixing well. 1× Antibody Solutions were combined 1:1 and briefly vortexed. For control wells, 20 μL 1× anti IRAK4-k Antibody Solution was saved. The 384-well plate (ProxiPlate-384 Plus, Perkin Elmer Cat. #6008289) was loaded by adding 4 μL of the mixed Antibody Solution to empty wells using a single channel repeater. Using a multi-channel repeater, 16 μL lysate was added per well, and any bubbles that were formed were popped with 20 μL pipette tips and Kimwipe edges. In column 10, triplicates of each control was prepared. In wells A10, B10, and C10, buffer control was prepared by adding 16 μL Lysis Buffer and 4 μL Detection Buffer. In wells D10, E10, and F10, cryptate control was prepared by adding 16 μL Lysis Buffer, 2 μL Detection Buffer, and 2 μL 1× anti IRAK4-k Antibody Solution. In wells G10, H10, and 110, a negative control was prepared by adding 16 μL Lysis Buffer and 4 μL mixed Antibody Solution. The plate was sealed with a clear seal and covered with an aluminum lid. The plate was spun down at 800 g for 5 min and incubated in the dark at room temperature overnight. The next day, the plate was spun down at 800 g for 5 min. The samples were analyzed by a plate reader (Envision, PerkinElmer) using the Desnor 384 HTRF program.

Consider `CN(C[C@H]1CC[C@H](n2cc(NC(=O)c3cnn4ccc(N5CCOCC5)nc34)c(C(F)F)n2)CC1)C1CCN(c2ccc3c(C4CCC(=O)NC4=O)nn(C)c3c2)CC1` (stereo partly drawn) [P-29, N-[3-(Difluoromethyl)-1-[4-[[[1-[3-(2,6-dioxo-3-piperidyl)-1-methyl-indazol-6-yl]-4-piperidyl]-methyl-amino]methyl]cyclohexyl]pyrazol-4-yl]-5-morpholino-pyrazolo[1,5-a]pyrimidine-3-carboxamide], for which, in experiment [1], the IC50 – broadly, the point on the concentration scale where inhibition reaches its midpoint – was less than 0.5 nM. The 50% effective concentration (EC50) (commonly the concentration needed to bring the measured effect to its halfway point) in experiment [2] was more than 10000 nM.

`CN(c1ccc2c(C3CCC(=O)NC3=O)nn(C)c2c1)C1CCN(C[C@H]2CC[C@H](n3cc(NC(=O)c4cnn5ccc(N6C[C@H](N)C[C@@H](F)C6)nc45)c(C(F)F)n3)CC2)CC1` (stereo partly drawn) [P-31] showed an IC50 in experiment [1] of less than 0.5 nM. A half-maximal effect in experiment [2] (EC50) was put at 3 nM.

In the case of `CN(c1ccc2c(C3CCC(=O)NC3=O)nn(C)c2c1)C1CCN(C[C@H]2CC[C@H](n3cc(NC(=O)c4cnn5ccc(N6CCOCC6)nc45)c(C(F)F)n3)CC2)CC1` (stereo partly drawn) [P-32], the IC50 in experiment [1] was less than 0.5 nM. Also, it took 1 nM to reach a half-maximal effect in experiment [2] (EC50).

For the molecule `CN(c1ccc2c(C3CCC(=O)NC3=O)nn(C)c2c1)C1CCN(CC[C@H]2CC[C@H](n3cc(NC(=O)c4cnn5ccc(N6C[C@H](N)C[C@@H](F)C6)nc45)c(C(F)F)n3)CC2)CC1` (stereo partly drawn) [P-33], the IC50 in experiment [1] was less than 0.5 nM. In experiment [2], this molecule registered an EC50 of 10 nM.

`CN(CC[C@H]1CC[C@H](n2cc(NC(=O)c3cnn4ccc(N5CCOCC5)nc34)c(C(F)F)n2)CC1)C1CCN(c2cccc3c(C4CCC(=O)NC4=O)nn(C)c23)CC1` (stereo partly drawn) [P-35] showed an IC50 in experiment [1] of 0.8 nM. In addition, it took 4 nM to reach a half-maximal effect in experiment [2] (EC50).

On to `C[C@H]1CN(CCN2CCC(n3cc(NC(=O)c4cnn5ccc(N6C[C@H](N)C[C@@H](F)C6)nc45)c(C(F)F)n3)CC2)CCN1c1ccc2c(C3CCC(=O)NC3=O)nn(C)c2c1` (stereo partly drawn) [P-36], for which the IC50 in experiment [1] was less than 0.5 nM. Further, in experiment [2], it took 5 nM to reach a half-maximal effect (EC50).

On to `C[C@@H]1CN(CCN2CCC(n3cc(NC(=O)c4cnn5ccc(N6C[C@H](N)C[C@@H](F)C6)nc45)c(C(F)F)n3)CC2)CCN1c1ccc2c(C3CCC(=O)NC3=O)nn(C)c2c1` (stereo partly drawn) [P-37, 5-((3R,5R)-3-amino-5-fluoropiperidin-1-yl)-N-(3-(difluoromethyl)-1-(1-(2-((3R)-4-(3-(2,6-dioxopiperidin-3-yl)-1-methyl-1H-indazol-6-yl)-3-methylpiperazin-1-yl)ethyl)piperidin-4-yl)-1H-pyrazol-4-yl)pyrazolo[1,5-a]pyrimidine-3-carboxamide], for which the IC50 in experiment [1] is less than 0.5 nM. The molecule also displayed an EC50 in experiment [2] of 5 nM.

In experiment [1], `CN(CC[C@H]1CC[C@H](n2cc(NC(=O)c3cnn4ccc(N5CCOCC5)nc34)c(C(F)F)n2)CC1)C1CCN(c2ccc3c(C4CCC(=O)NC4=O)nn(C)c3c2)CC1` (stereo partly drawn) [P-38] gave a 50% inhibitory concentration (IC50) of less than 0.5 nM. The EC50 in experiment [2] is more than 10000 nM.

The molecule `Cn1nc(C2CCC(=O)NC2=O)c2ccc(N3CCN(CCN4CCC(n5cc(NC(=O)c6cnn7ccc(N8C[C@H](N)C[C@@H](F)C8)nc67)c(C(F)F)n5)CC4)CC3)cc21` (stereo partly drawn) [P-40, N-[3-(Difluoromethyl)-1-[1-[2-[4-[3-(2,6-dioxo-3-piperidyl)-1-methyl-indazol-6-yl]piperazin-1-yl]ethyl]-4-piperidyl]pyrazol-4-yl]-5-[(3R,5R)-3-amino-5-fluoro-1-piperidyl]pyrazolo[1,5-a]pyrimidine-3-carboxamide] displayed an IC50 in experiment [1] of less than 0.5 nM. Moreover, the concentration giving a half-maximal response (EC50) in experiment [2] was 6 nM.

In experiment [1], `CN(C[C@H]1CC[C@H](n2cc(NC(=O)c3cnn4ccc(N5CCOC5)nc34)c(C(F)F)n2)CC1)C1CCN(c2ccc3c(C4CCC(=O)NC4=O)nn(C)c3c2)CC1` (stereo partly drawn) [P-41] registered an IC50 of less than 0.5 nM. For the same molecule, the EC50 in experiment [2] is more than 10000 nM.

`CN(C)c1ccn2ncc(C(=O)Nc3cn([C@H]4CC[C@H](CN(C)C5CCN(c6ccc7c(C8CCC(=O)NC8=O)nn(C)c7c6)CC5)CC4)nc3C(F)F)c2n1` (stereo partly drawn) [P-43] displayed a half-maximal inhibitory concentration (IC50) in experiment [1] of less than 0.5 nM. The 50% effective concentration (EC50) in experiment [2] is more than 10000 nM.

Take `CN(C[C@H]1CC[C@H](n2cc(NC(=O)c3cnn4ccc(NCc5ccccn5)nc34)c(C(F)F)n2)CC1)C1CCN(c2ccc3c(C4CCC(=O)NC4=O)nn(C)c3c2)CC1` (stereo partly drawn) [P-44]: the concentration for half-maximal inhibition (IC50) in experiment [1] worked out at 7.3 nM. Further, in experiment [2], the 50% effective concentration (EC50) was more than 10000 nM.
